ChEMBL document CHEMBL1201861, “Genomics of Drug Sensitity in Cancer screening data, Wellcome Trust Sanger Institute”

Assays:
Assay in all cases: cells
KARPAS-45 = assay type: functional, cell-based; details: Homo sapiens
Description: SANGER: Inhibition of human KARPAS-45 cell growth in a cell viability assay.

SK-NEP-1 = assay type: functional, cell-based; details: Homo sapiens
Description: SANGER: Inhibition of human SK-NEP-1 cell growth in a cell viability assay.

MCF7 = assay type: functional, cell-based, Homo sapiens; details: Homo sapiens, MCF7
Description: SANGER: Inhibition of human MCF7 cell growth in a cell viability assay.

A704 = assay type: functional, cell-based, Homo sapiens; details: Homo sapiens, A704
Description: SANGER: Inhibition of human A704 cell growth in a cell viability assay.

D-336MG = assay type: functional, cell-based, Homo sapiens; details: Homo sapiens, D-336MG
Description: SANGER: Inhibition of human D-336MG cell growth in a cell viability assay.

IST-SL1 = assay type: functional, cell-based, Homo sapiens; details: Homo sapiens, IST-SL1
Description: SANGER: Inhibition of human IST-SL1 cell growth in a cell viability assay.

CAL-39 = assay type: functional, cell-based, Homo sapiens; details: Homo sapiens, CAL-39
Description: SANGER: Inhibition of human CAL-39 cell growth in a cell viability assay.

SNU-5 = assay type: functional, cell-based; details: Homo sapiens
Description: SANGER: Inhibition of human NCI-SNU-5 cell growth in a cell viability assay.

DK-MG = assay type: functional, cell-based, Homo sapiens; details: Homo sapiens, DK-MG
Description: SANGER: Inhibition of human DK-MG cell growth in a cell viability assay.

CAL-120 = assay type: functional, cell-based, Homo sapiens; details: Homo sapiens, CAL-120
Description: SANGER: Inhibition of human CAL-120 cell growth in a cell viability assay.

NCI-H596 = assay type: functional, cell-based, Homo sapiens; details: Homo sapiens, NCI-H596
Description: SANGER: Inhibition of human NCI-H596 cell growth in a cell viability assay.

KLE = assay type: functional, cell-based, Homo sapiens; details: Homo sapiens, KLE
Description: SANGER: Inhibition of human KLE cell growth in a cell viability assay.

LU-134-A = assay type: functional, cell-based; details: Homo sapiens
Description: SANGER: Inhibition of human LU-134-A cell growth in a cell viability assay.

VMRC-RCZ = assay type: functional, cell-based; details: Homo sapiens
Description: SANGER: Inhibition of human VMRC-RCZ cell growth in a cell viability assay.

HCC1569 = assay type: functional, cell-based, Homo sapiens; details: Homo sapiens, HCC1569
Description: SANGER: Inhibition of human HCC1569 cell growth in a cell viability assay.

NCI-H1770 = assay type: functional, cell-based; details: Homo sapiens
Description: SANGER: Inhibition of human NCI-H1770 cell growth in a cell viability assay.

OVCAR-3 = assay type: functional, cell-based, Homo sapiens; details: Homo sapiens, OVCAR-3
Description: SANGER: Inhibition of human OVCAR-3 cell growth in a cell viability assay.

LoVo = assay type: functional, cell-based; details: Homo sapiens
Description: SANGER: Inhibition of human LoVo cell growth in a cell viability assay.

NCI-H520 = assay type: functional, cell-based, Homo sapiens; details: Homo sapiens, NCI-H520
Description: SANGER: Inhibition of human NCI-H520 cell growth in a cell viability assay.

RPMI-8866 = assay type: functional, cell-based; details: Homo sapiens
Description: SANGER: Inhibition of human RPMI-8866 cell growth in a cell viability assay.

GOTO = assay type: functional, cell-based, Homo sapiens; details: Homo sapiens, GOTO
Description: SANGER: Inhibition of human GOTO cell growth in a cell viability assay.

COLO-678 = assay type: functional, cell-based, Homo sapiens; details: Homo sapiens, COLO-678
Description: SANGER: Inhibition of human COLO-678 cell growth in a cell viability assay.

K562 = assay type: functional, cell-based; details: Homo sapiens
Description: SANGER: Inhibition of human K-562 cell growth in a cell viability assay.

NTERA-2-cl-D1 = assay type: functional, cell-based, Homo sapiens; details: Homo sapiens, NTERA-2-cl-D1
Description: SANGER: Inhibition of human NTERA-S-cl-D1 cell growth in a cell viability assay.

LOX IMVI = assay type: functional, cell-based; details: Homo sapiens
Description: SANGER: Inhibition of human LOXIMVI cell growth in a cell viability assay.

SNB-75 = assay type: functional, cell-based, Homo sapiens; details: Homo sapiens, SNB-75
Description: SANGER: Inhibition of human SNB75 cell growth in a cell viability assay.

HCT-116 = assay type: functional, cell-based, Homo sapiens; details: Homo sapiens, HCT-116
Description: SANGER: Inhibition of human HCT-116 cell growth in a cell viability assay.

NY = assay type: functional, cell-based, Homo sapiens; details: Homo sapiens, NY
Description: SANGER: Inhibition of human NY cell growth in a cell viability assay.

EFO-27 = assay type: functional, cell-based, Homo sapiens; details: Homo sapiens, EFO-27
Description: SANGER: Inhibition of human EFO-27 cell growth in a cell viability assay.

IGROV-1 = assay type: functional, cell-based, Homo sapiens; details: Homo sapiens, IGROV-1
Description: SANGER: Inhibition of human IGROV-1 cell growth in a cell viability assay.

NCI-H2228 = assay type: functional, cell-based, Homo sapiens; details: Homo sapiens, NCI-H2228
Description: SANGER: Inhibition of human NCI-H2228 cell growth in a cell viability assay.

ALL-PO = assay type: functional, cell-based; details: Homo sapiens
Description: SANGER: Inhibition of human ALL-PO cell growth in a cell viability assay.

COLO-800 = assay type: functional, cell-based, Homo sapiens; details: Homo sapiens, COLO-800
Description: SANGER: Inhibition of human COLO-800 cell growth in a cell viability assay.

SN12C = assay type: functional, cell-based, Homo sapiens; details: Homo sapiens, SN12C
Description: SANGER: Inhibition of human SN12C cell growth in a cell viability assay.

UO-31 = assay type: functional, cell-based; details: Homo sapiens
Description: SANGER: Inhibition of human U031 cell growth in a cell viability assay.

TK-10 = assay type: functional, cell-based, Homo sapiens; details: Homo sapiens, TK-10
Description: SANGER: Inhibition of human TK10 cell growth in a cell viability assay.

CAS-1 = assay type: functional, cell-based, Homo sapiens; details: Homo sapiens, CAS-1
Description: SANGER: Inhibition of human CAS-1 cell growth in a cell viability assay.

MHH-PREB-1 = assay type: functional, cell-based; details: Homo sapiens
Description: SANGER: Inhibition of human MHH-PREB-1 cell growth in a cell viability assay.

MS-1 = assay type: functional, cell-based; details: Homo sapiens
Description: SANGER: Inhibition of human MS-1 cell growth in a cell viability assay.

RO82-W-1 = assay type: functional, cell-based, Homo sapiens; details: Homo sapiens, RO82-W-1
Description: SANGER: Inhibition of human RO82-W-1 cell growth in a cell viability assay.

BEN = assay type: functional, cell-based, Homo sapiens; details: Homo sapiens, BEN
Description: SANGER: Inhibition of human BEN cell growth in a cell viability assay.

MN-60 = assay type: functional, cell-based; details: Homo sapiens
Description: SANGER: Inhibition of human MN-60 cell growth in a cell viability assay.

U-266 = assay type: functional, cell-based; details: Homo sapiens
Description: SANGER: Inhibition of human U-266 cell growth in a cell viability assay.

AGS = assay type: functional, cell-based, Homo sapiens; details: Homo sapiens, AGS
Description: SANGER: Inhibition of human AGS cell growth in a cell viability assay.

KP-4 = assay type: functional, cell-based, Homo sapiens; details: Homo sapiens, KP-4
Description: SANGER: Inhibition of human KP-4 cell growth in a cell viability assay.

IGR-1 = assay type: functional, cell-based, Homo sapiens; details: Homo sapiens, IGR-1
Description: SANGER: Inhibition of human IGR-1 cell growth in a cell viability assay.

NCI-H810 = assay type: functional, cell-based, Homo sapiens; details: Homo sapiens, NCI-H810
Description: SANGER: Inhibition of human NCI-H810 cell growth in a cell viability assay.

NCI-H1648 = assay type: functional, cell-based, Homo sapiens; details: Homo sapiens, NCI-H1648
Description: SANGER: Inhibition of human NCI-H1648 cell growth in a cell viability assay.

OE33 = assay type: functional, cell-based, Homo sapiens; details: Homo sapiens, OE33
Description: SANGER: Inhibition of human OE33 cell growth in a cell viability assay.

HGC-27 = assay type: functional, cell-based, Homo sapiens; details: Homo sapiens, HGC-27
Description: SANGER: Inhibition of human HGC-27 cell growth in a cell viability assay.

LB771-HNC = assay type: functional, cell-based, Homo sapiens; details: Homo sapiens, LB771-HNC
Description: SANGER: Inhibition of human LB771-HNC cell growth in a cell viability assay.

HAL-01 = assay type: functional, cell-based; details: Homo sapiens
Description: SANGER: Inhibition of human HAL-01 cell growth in a cell viability assay.

SCC-9 = assay type: functional, cell-based, Homo sapiens; details: Homo sapiens, SCC-9
Description: SANGER: Inhibition of human SCC-9 cell growth in a cell viability assay.

## CC(=O)O[C@@]12CO[C@@H]1C[C@H](O)[C@@]1(C)C(=O)[C@H](O)C3=C(C)[C@@H](OC(=O)[C@H](O)[C@@H](NC(=O)OC(C)(C)C)c4ccccc4)C[C@@](O)([C@@H](OC(=O)c4ccccc4)[C@H]21)C3(C)C [DOCETAXEL]
KARPAS-45
  IC50: 6.52 nM
SK-NEP-1
  IC50: 1.76 nM
MCF7
  IC50: 1.61 nM
A704
  IC50: > 10 nM
D-336MG
  IC50: 1.69 nM
IST-SL1
  IC50: 3.12 nM
CAL-39
  IC50: 1.63 nM
SNU-5
  IC50: 5.45 nM
DK-MG
  IC50: 8.6 nM
CAL-120
  IC50: 4.35 nM
NCI-H596
  IC50: > 10 nM
KLE
  IC50: > 10 nM
LU-134-A
  IC50: > 10 nM
VMRC-RCZ
  IC50: 2.52 nM
HCC1569
  IC50: > 10 nM
NCI-H1770
  IC50: 3.42 nM
OVCAR-3
  IC50: 4.07 nM
LoVo
  IC50: > 10 nM
NCI-H520
  IC50: 3.72 nM
RPMI-8866
  IC50: 2.81 nM
GOTO
  IC50: 2.27 nM
COLO-678
  IC50: > 10 nM
K562
  IC50: > 10 nM
NTERA-2-cl-D1
  IC50: 0.773 nM
LOX IMVI
  IC50: 1.16 nM
SNB-75
  IC50: 3.81 nM
HCT-116
  IC50: 1.81 nM
NY
  IC50: > 10 nM
EFO-27
  IC50: 1.02 nM
IGROV-1
  IC50: > 10 nM
NCI-H2228
  IC50: 7.25 nM
ALL-PO
  IC50: 8.6 nM
COLO-800
  IC50: 0.388 nM
SN12C
  IC50: 5.5 nM
UO-31
  IC50: 3.07 nM
TK-10
  IC50: 9.77 nM
CAS-1
  IC50: > 10 nM
MHH-PREB-1
  IC50: 1.89 nM
MS-1
  IC50: > 10 nM
RO82-W-1
  IC50: 5.31 nM
BEN
  IC50: > 10 nM
MN-60
  IC50: > 10 nM
U-266
  IC50: 3.48 nM
AGS
  IC50: 3.28 nM
KP-4
  IC50: 1.56 nM
IGR-1
  IC50: 6.41 nM
NCI-H810
  IC50: 6.22 nM
NCI-H1648
  IC50: 6.01 nM
OE33
  IC50: > 10 nM
HGC-27
  IC50: 0.471 nM
LB771-HNC
  IC50: > 10 nM
HAL-01
  IC50: > 10 nM
SCC-9
  IC50: 1.32 nM

## COc1cc([C@@H]2c3cc4c(cc3[C@@H](O[C@@H]3O[C@@H]5CO[C@@H](C)O[C@H]5[C@H](O)[C@H]3O)[C@H]3COC(=O)[C@H]23)OCO4)cc(OC)c1O [ETOPOSIDE]
KARPAS-45
  IC50: > 16000 nM
SK-NEP-1
  IC50: 1900 nM
MCF7
  IC50: 831 nM
A704
  IC50: > 16000 nM
D-336MG
  IC50: > 16000 nM
IST-SL1
  IC50: > 16000 nM
CAL-39
  IC50: 4640 nM
SNU-5
  IC50: 7920 nM
DK-MG
  IC50: > 16000 nM
CAL-120
  IC50: 15600 nM
NCI-H596
  IC50: > 16000 nM
KLE
  IC50: 10300 nM
LU-134-A
  IC50: 299 nM
VMRC-RCZ
  IC50: 1970 nM
HCC1569
  IC50: 3580 nM
NCI-H1770
  IC50: 3870 nM
OVCAR-3
  IC50: > 16000 nM
LoVo
  IC50: 2060 nM
NCI-H520
  IC50: 8040 nM
RPMI-8866
  IC50: 4650 nM
GOTO
  IC50: 6380 nM
COLO-678
  IC50: > 16000 nM
K562
  IC50: > 16000 nM
NTERA-2-cl-D1
  IC50: 25 nM
LOX IMVI
  IC50: > 16000 nM
SNB-75
  IC50: 10900 nM
HCT-116
  IC50: 1010 nM
NY
  IC50: 4490 nM
EFO-27
  IC50: 3360 nM
IGROV-1
  IC50: 171 nM
NCI-H2228
  IC50: 2660 nM
ALL-PO
  IC50: 690 nM
COLO-800
  IC50: 2100 nM
SN12C
  IC50: 1880 nM
UO-31
  IC50: 11300 nM
TK-10
  IC50: 7490 nM
CAS-1
  IC50: > 16000 nM
MHH-PREB-1
  IC50: > 16000 nM
MS-1
  IC50: 5640 nM
RO82-W-1
  IC50: > 16000 nM
BEN
  IC50: > 16000 nM
MN-60
  IC50: > 16000 nM
U-266
  IC50: > 16000 nM
AGS
  IC50: 318 nM
KP-4; read-out: IC50
  IC50: 416 nM
IGR-1
  IC50: 1590 nM
NCI-H810
  IC50: 1580 nM
NCI-H1648
  IC50: > 16000 nM
OE33
  IC50: 5120 nM
HGC-27
  IC50: 102 nM
LB771-HNC
  IC50: > 16000 nM
HAL-01
  IC50: 3800 nM
SCC-9
  IC50: 850 nM
